Molecular target: T1, horseradish peroxidase (HRP) tagged delF508-CFTR (Homo sapiens, UniProt P13569, DEL508-508)
T1 construct: expressed in transfected cells
Assay: Measurement of delF508-CFTR-HRP surface expression in CFBE41o- cells;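 for DelF508-CFTR-HRP Amax %: percent efficacy relative to reference corrector lumacaftor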
Format: cell-based
Conditions: CFBE41o- cells; for EC50: mean of at least two replicates, read-out: DelF508-CFTR-HRP EC50; for Emax: surface expression Amax, read-out: DelF508-CFTR-HRP Amax %
Method in brief: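 CFBE41o- bronchial epithelial cells stably expressing delF508-CFTR with HRP in the fourth extracellular loop; expression induced 48h with 500 ng/mL doxycycline, then compounds added (top 10 μM, 10-point 3-fold series, ≤0.5% DMSO) for 24h at 37° C. Surface HRP measured by luminescence with cell-impermeant substrate; EC50 from logistic fit of triplicates, plate-normalized to lowest concentration; efficacy also relative to a reference corrector.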

T1 sequence (P13569 with tags, fused parts or gaps DEL508-508): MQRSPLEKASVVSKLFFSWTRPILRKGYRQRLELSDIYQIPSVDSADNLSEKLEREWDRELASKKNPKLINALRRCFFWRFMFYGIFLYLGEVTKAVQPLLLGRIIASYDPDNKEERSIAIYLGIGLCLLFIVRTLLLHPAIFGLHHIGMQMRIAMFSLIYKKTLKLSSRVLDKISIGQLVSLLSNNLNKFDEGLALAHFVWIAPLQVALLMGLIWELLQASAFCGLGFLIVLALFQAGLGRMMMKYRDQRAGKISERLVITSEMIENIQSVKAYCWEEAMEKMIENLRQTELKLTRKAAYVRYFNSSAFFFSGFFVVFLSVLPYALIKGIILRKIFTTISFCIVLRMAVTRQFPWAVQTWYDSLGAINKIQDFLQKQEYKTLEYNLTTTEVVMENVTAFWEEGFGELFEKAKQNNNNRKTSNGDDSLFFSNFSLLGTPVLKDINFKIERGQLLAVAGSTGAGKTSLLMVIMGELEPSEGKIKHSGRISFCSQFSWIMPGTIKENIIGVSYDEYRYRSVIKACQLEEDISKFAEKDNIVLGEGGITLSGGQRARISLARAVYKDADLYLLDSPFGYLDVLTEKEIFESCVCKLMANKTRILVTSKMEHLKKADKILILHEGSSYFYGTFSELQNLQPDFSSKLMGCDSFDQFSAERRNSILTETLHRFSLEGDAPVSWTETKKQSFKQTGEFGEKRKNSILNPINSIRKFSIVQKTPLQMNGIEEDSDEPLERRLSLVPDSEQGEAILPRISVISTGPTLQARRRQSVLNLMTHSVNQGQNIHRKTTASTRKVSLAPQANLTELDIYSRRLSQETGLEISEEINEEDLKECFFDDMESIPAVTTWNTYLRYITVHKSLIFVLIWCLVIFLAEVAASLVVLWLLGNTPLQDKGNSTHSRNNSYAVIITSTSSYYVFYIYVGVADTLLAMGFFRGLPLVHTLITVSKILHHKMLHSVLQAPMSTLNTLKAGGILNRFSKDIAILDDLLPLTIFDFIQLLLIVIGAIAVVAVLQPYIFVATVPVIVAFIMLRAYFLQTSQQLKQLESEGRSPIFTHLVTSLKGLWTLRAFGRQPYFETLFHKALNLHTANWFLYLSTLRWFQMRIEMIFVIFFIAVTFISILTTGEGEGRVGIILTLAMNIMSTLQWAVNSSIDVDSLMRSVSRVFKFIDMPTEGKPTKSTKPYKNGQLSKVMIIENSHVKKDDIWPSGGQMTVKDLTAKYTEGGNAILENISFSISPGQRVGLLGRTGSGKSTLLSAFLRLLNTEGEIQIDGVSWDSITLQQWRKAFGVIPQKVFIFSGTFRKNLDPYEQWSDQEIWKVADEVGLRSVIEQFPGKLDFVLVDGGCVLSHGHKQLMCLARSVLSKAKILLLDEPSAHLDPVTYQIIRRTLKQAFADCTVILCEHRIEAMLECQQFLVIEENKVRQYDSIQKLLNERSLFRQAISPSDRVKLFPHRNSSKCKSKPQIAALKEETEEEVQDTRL

Compound	EC50	Emax
CCCc1ccccc1-c1nc(NS(=O)(=O)c2cccc(N3CCC[C@](C)(C(=O)O)C3)n2)ccc1C(F)(F)F [Example 425, (S)-3-methyl-1-(6-(N-(6-(2-propylphenyl)-5-(trifluoromethyl)pyridin-2-yl)sulfamoyl)pyridin-2-yl)piperidine-3-carboxylic Acid]	1220 nM	–
COc1ccc(Cl)cc1-c1nc(NS(=O)(=O)c2cccc(N3CCC(C)(C(=O)O)CC3)n2)ccc1C(F)(F)F [Example 426, 1-(6-(N-(6-(5-chloro-2-methoxyphenyl)-5-(trifluoromethyl)pyridin-2-yl)sulfamoyl)pyridin-2-yl)-4-methylpiperidine-4-carboxylic Acid]	2320 nM	287%
CC(C)Oc1ccc(Cl)cc1-c1nc(NS(=O)(=O)c2cccc(N3CCC(C)(C(=O)O)CC3)n2)ccc1C(F)(F)F [Example 427, 1-(6-(N-(6-(5-chloro-2-isopropoxyphenyl)-5-(trifluoromethyl)pyridin-2-yl)sulfamoyl)pyridin-2-yl)-4-methylpiperidine-4-carboxylic Acid]	638 nM	282%
C[C@]1(C(=O)O)CCCN(c2cccc(S(=O)(=O)Nc3ccc(C(F)(F)F)c(-c4ccccc4C4CC4)n3)n2)C1 [Example 429, (S)-1-(6-(N-(6-(2-cyclopropylphenyl)-5-(trifluoromethyl)pyridin-2-yl)sulfamoyl)pyridin-2-yl)-3-methylpiperidine-3-carboxylic Acid]	838 nM	541%
CC1(C(=O)O)CCN(c2cccc(S(=O)(=O)Nc3ccc(Cl)c(-c4ccccc4C4CC4)n3)n2)CC1 [Example 430, 1-(6-(N-(5-chloro-6-(2-cyclopropylphenyl)pyridin-2-yl)sulfamoyl)pyridin-2-yl)-4-methylpiperidine-4-carboxylic Acid]	1710 nM	370%
CC1(C(=O)O)CCCN(c2cccc(S(=O)(=O)Nc3ccc(Cl)c(-c4ccccc4C4CC4)n3)n2)C1 (stereo not drawn) [Example 431, 1-(6-(N-(5-chloro-6-(2-cyclopropylphenyl)pyridin-2-yl)sulfamoyl)pyridin-2-yl)-3-methylpiperidine-3-carboxylic Acid]	1730 nM	763%
CC(C)Oc1ccc(Cl)cc1-c1nc(NS(=O)(=O)c2cccc(N3CCCC(C)(C(=O)O)C3)n2)ccc1C(F)(F)F (stereo not drawn) [Example 433, 1-(6-(N-(6-(5-chloro-2-isopropoxyphenyl)-5-(trifluoromethyl)pyridin-2-yl)sulfamoyl)pyridin-2-yl)-3-methylpiperidine-3-carboxylic Acid]	436 nM	571%

Further lines, results first:

EC50	Emax	Compound
1680 nM	713%	Cc1ccccc1-c1nc(NS(=O)(=O)c2cccc(N3CCC[C@](C)(C(=O)O)C3)n2)ccc1C(F)(F)F [Example 428, (3S)-3-methyl-1-(6-{[6-(2-methylphenyl)-5-(trifluoromethyl)pyridin-2-yl]sulfamoyl}pyridin-2-yl)piperidine-3-carboxylic Acid]
1920 nM	596%	COc1ccc(Cl)cc1-c1nc(NS(=O)(=O)c2cccc(N3CCCC(C)(C(=O)O)C3)n2)ccc1C(F)(F)F (stereo not drawn) [Example 432, 1-(6-(N-(6-(5-chloro-2-methoxyphenyl)-5-(trifluoromethyl)pyridin-2-yl)sulfamoyl)pyridin-2-yl)-3-methylpiperidine-3-carboxylic Acid]
2300 nM	714%	Cc1ccc(F)cc1-c1nc(NS(=O)(=O)c2cccc(N3CCC[C@](C)(C(=O)O)C3)n2)ccc1C(F)(F)F [Example 435, (3S)-1-(6-{[6-(5-fluoro-2-methylphenyl)-5-(trifluoromethyl)pyridin-2-yl]sulfamoyl}pyridin-2-yl)-3-methylpiperidine-3-carboxylic Acid]
1770 nM	438%	Cc1c(F)cccc1-c1nc(NS(=O)(=O)c2cccc(N3CCC[C@](C)(C(=O)O)C3)n2)ccc1C(F)(F)F [Example 436, (3S)-1-(6-{[6-(3-fluoro-2-methylphenyl)-5-(trifluoromethyl)pyridin-2-yl]sulfamoyl}pyridin-2-yl)-3-methylpiperidine-3-carboxylic Acid]
